Measured values reported in patent publication US5188937A, “Layered sandwich assay method for chlamydia and materials therefor” (Becton, Dickinson and Company, priority 1991, dated 1993).

Each compound was assayed against T1, Rabbit Liver Esterase (E.C. 3.1.1.1) (Oryctolagus cuniculus, UniProt P12337) (assay: Inhibition constants, esterase hydrolysis of o-nitrophenyl butyrate followed spectrophotometrically). Conditions: RLE; 50 mM Tris pH=8.0; enzyme and inhibitor incubated at ambient temperature for 20 minutes.
T1 construct: from tissue; host or cells: rabbit liver
T1 sequence (P12337 19-565): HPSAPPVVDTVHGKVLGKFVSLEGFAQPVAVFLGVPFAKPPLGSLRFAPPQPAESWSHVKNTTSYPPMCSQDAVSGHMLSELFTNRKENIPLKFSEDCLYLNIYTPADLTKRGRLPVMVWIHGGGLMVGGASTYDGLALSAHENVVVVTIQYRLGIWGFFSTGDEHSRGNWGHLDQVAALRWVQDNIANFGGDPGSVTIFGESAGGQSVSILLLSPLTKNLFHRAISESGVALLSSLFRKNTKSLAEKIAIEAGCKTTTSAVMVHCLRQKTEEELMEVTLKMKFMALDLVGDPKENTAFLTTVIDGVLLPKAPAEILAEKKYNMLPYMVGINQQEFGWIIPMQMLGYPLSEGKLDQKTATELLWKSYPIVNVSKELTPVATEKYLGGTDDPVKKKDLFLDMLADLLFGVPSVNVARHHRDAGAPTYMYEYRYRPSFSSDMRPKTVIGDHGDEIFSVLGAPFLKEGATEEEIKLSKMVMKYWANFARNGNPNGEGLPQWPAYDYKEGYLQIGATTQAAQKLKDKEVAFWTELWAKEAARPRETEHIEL
Assay type: biochemical
Experimental: Inhibition constants were measured in 50 mM Tris pH=8.0. Enzyme and inhibitor were incubated at ambient temperature for 20 minutes. Substrate for the enzyme was then added and the rate of hydrolysis was followed spectrophotometrically. The substrate for PLE and RLE was o-nitro-phenylbutrate and for AChE was acetyl thiocholine and Ellman's reagent.
In the case of O=C(CCc1ccc(O)cc1)C(F)(F)F [1,1,1-trifluoro-4-(4-hydroxyphenyl)-2-butanone], the Ki was 0.02 µM.
Work on O=C(CCCc1cccc(O)c1)C(F)(F)F [1,1,1-trifluoro-5-(3-hydroxyphenyl)-2-pentanone] yielded a Ki of 0.17 µM.
O=C(CCCc1ccc(O)cc1)C(F)(F)F [1,1,1-trifluoro-5-(4-hydroxyphenyl)-2-pentanone] gave a Ki of 0.01 µM.
O=C(CCCCc1ccc(O)cc1)C(F)(F)F [1,1,1-trifluoro-6-(4-hydroxyphenyl)-2-hexanone] gave a Ki of 0.02 µM.
For O=C(CCc1ccc(O)cc1)C(F)(F)C(F)(F)F [1,1,1,2,2-pentafluoro-5-(4-hydroxyphenyl)-3-pentanone], the Ki was 0.8 µM.
O=C(CCc1cccc(O)c1)C(F)(F)F [1,1,1-trifluoro-4-(3-hydroxyphenyl)-2-butanone] showed a Ki of 0.1 µM.
O=C(Cc1ccc(O)cc1)C(F)(F)F [1,1,1-trifluoro-3-(4-hydroxyphenyl)propanone] showed a Ki of 2 µM.
